Reference: article PMC7016953 (Cells, 2020)

Key:
TRPC3 = target: T1, TRPC3 (Homo sapiens, UniProt Q13507); experiment: Fluo-4 Ca2+ influx assay in HEK TRPC3-YFP cell suspensions; assay type: cell-based; conditions: for IC50: inhibitor 5 min, then 50 µM artemisinin, fluo-4, read-out: IC50 for inhibition of artemisinin-induced increases in [Ca2+]i; for effect of preincubation on responses to artemisinin (1–200 µM): 10 µM for 5 min; for TRPC3 activation in concentration response analysis: fluo-4, up to 200 µM, compared with solvent (DMSO)
T1 construct: expressed in transfected cells
T1 sequence (Q13507 1-848 isoform Q13507-3): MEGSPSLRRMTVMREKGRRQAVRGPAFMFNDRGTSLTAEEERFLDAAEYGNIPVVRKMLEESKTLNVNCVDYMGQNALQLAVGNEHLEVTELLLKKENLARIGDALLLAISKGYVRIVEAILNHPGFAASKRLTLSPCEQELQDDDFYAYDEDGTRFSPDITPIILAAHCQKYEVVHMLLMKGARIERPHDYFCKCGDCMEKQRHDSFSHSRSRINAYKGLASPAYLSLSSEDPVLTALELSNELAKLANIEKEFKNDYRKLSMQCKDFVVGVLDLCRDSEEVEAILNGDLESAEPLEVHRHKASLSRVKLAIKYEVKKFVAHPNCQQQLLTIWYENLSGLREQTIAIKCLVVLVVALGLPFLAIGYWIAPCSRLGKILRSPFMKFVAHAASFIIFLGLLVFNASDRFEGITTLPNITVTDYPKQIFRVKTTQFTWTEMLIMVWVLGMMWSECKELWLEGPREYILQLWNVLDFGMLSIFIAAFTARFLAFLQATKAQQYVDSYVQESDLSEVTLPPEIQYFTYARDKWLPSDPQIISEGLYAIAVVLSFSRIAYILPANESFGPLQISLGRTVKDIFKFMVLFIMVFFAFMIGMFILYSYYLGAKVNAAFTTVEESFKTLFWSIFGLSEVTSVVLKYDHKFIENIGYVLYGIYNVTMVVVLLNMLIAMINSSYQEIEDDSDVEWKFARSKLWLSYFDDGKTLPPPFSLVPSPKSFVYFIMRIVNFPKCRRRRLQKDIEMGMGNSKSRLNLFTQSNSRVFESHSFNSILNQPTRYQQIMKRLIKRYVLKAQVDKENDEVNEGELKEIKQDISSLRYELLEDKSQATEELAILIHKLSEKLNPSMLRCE

[1] = tested on: PC12 cells (native TRPC3 channel complexes); experiment: Whole-cell patch-clamp recordings in PC12 cells; assay type: cell-based, rat; conditions: 20 µM CBN 2910-0498, 10 µM SAR7334, or 10 µM GSK417654A
Description: The recordings of TRPC3, TRPC6, or TRPC7 membrane currents in HEK293 or PC12 cells were realized by using a Multiclamp 700B amplifier with a Digidata 1440A digitizer controlled by the PClamp 10 software (all Molecular Devices, Sunnyvale, CA, U.S.A.). Recordings were obtained at room temperature either in the whole-cell or in an outside-out configuration as indicated. Cells were seeded as described above, but at lower density, mounted in a chamber (Warner Instruments, Hamden, CT; U.S.A.), placed onto the stage of an inverted microscope, and perfused with required solution. The standard extracellular solution contained 140 mM NaCl, 5 mM CsCl, 2 mM MgCl2, 1 mM CaCl2, 10 mM HEPES, and 0.035% BSA adjusted to pH 7.4 with NaOH. The composition of standard intracellular solution was 140 mM CsCl, 1 mM MgCl2, 5 mM EGTA, and 10 mM HEPES adjusted to pH 7.25 with CsOH; the osmolarity was 295 mOsm l^−1. In outside-out measurements, the pipette solution contained 5 mM EGTA and 1.1 mM CaCl2 to achieve a calculated free Ca^2+ concentration of 100 nM.
Patch pipettes were pulled from borosilicate glass capillaries BG150F-8P (Science Products, Hofheim, Germany) with a PIP6 pipette puller (HEKA Elektronik, Lambrecht, Germany). […] In all whole-cell measurements, the series resistance was lower than 13 MΩ, and compensated by 70%. If the access was unstable during the experiment (increase in series resistance by more than 15% at the end of the experiment), the cell was omitted from the analysis. To record current/voltage (I/V) curves, voltage ramps (400 mV s^−1) ranging from –100 to +100 mV were applied. Currents were filtered at 3 kHz with a four-pole Bessel filter and sampled at 10 kHz. […]
Figure 9 Artemisinin-induced ionic currents in HEK293 cells and in PC12 cells are sensitive to established TRPC3 inhibitors. […] Concentration–response curves were normalized to responses measured without an inhibitor (controls), and IC50 values were obtained by fitting a four-parameter Hill equation to the data. […]

[2] = tested on: PC12 cells (native TRPC3 channel complexes); experiment: [Ca2+]i analysis in fura-2-loaded PC12 cells; assay type: cell-based, rat; conditions: artemisinin 50 or 100 µM; 6–12 experiments for each compound
Description: Human embryonic kidney 293 (HEK293) cells were stably transfected with expression plasmids that encode hTRPC3-YFP, hTRPC6-YFP, hTRPC7-YFP, mTRPC4ß-YFP, rTRPV1-CFP, rTRPV2-YFP, rTRPV3-YFP, mTRPV4-YFP, or hTRPM2 as previously described. Cell lines were cultured in Earle’s minimum essential medium (MEM; Sigma, Munich, Germany), supplemented with 10% fetal calf serum (Gibco Thermo Fisher Scientific, Darmstadt, Germany), 2 mM L-glutamine, and required concentrations of geneticin in a range of 0.4–1 mg/mL. A HEK293mTRPC5-YFP cell line was maintained and induced as described before. The HEK293mTRPM3α2 cells (expressing the Ca^2+-permeable main variant of mouse TRPM3) were kindly provided by Johannes Oberwinkler (Marburg, Germany), the HEK293hTRPA1 cells that constitutively overexpress the human TRPA1 were from Dr. Natalie Tigue and Dr. Steve Moore (GlaxoSmithKline, Harlow, UK). With the exception of mTRPC5-YFP, all cell lines constitutively overexpress the respective TRP channel under the control of a cytomegalovirus (CMV) promoter. A HEK cell line stably expressing the human protein kinase C (PKC) ε C-terminally tagged with YFP [13] was generated and maintained in the same medium as HEKTRPC3-YFP cells. PC12 cells were cultured in RPMI-1640 (Sigma, Munich, Germany) with 10% fetal calf serum, 2 mM L-glutamine, 100 U/mL penicillin, and 0.1 mg/mL streptomycin. For electrophysiological and single cell [Ca^2+]i imaging experiments, PC12 cells were plated onto 25 mm poly-L-lysine-coated glass coverslips and measured 24–48 h after seeding. All cells were maintained at 37 °C in a 5% CO2-aerated, humidified atmosphere.
The microfluorometric single-cell [Ca^2+]i analysis was performed on an inverted epifluorescence microscope (Carl Zeiss, Jena, Germany) and calibrated as described. Cells were grown on 25 mm coverslips and loaded with 4 µM fura-2/AM (AAT Bioquest, Sunnyvale, CA, U.S.A.) in HBS containing 0.2% BSA for 30 min at 37 °C. After gently rinsing the coverslips with HBS, coverslips were mounted in a bath chamber and superfused with HBS containing 0.035% BSA.
Figure 7 Expression of TRPC3 and functional responses to TRPC activators in PC12 rat pheochromocytoma cells. (A) Immunofluorescence analysis of TRPC3 (green channel) and tyrosine hydroxylase (TH; red channel) expression in PC12 cells. Nuclei were counterstained with DAPI (blue channel). Bars: 20 µm scale. Time course of the [Ca^2+]i (B) and averaged basal and peak [Ca^2+]i values (C) were recorded by microfluorometric analysis in fura-2-loaded PC12 cells grown on glass coverslips. […] Data represent averages (B) or means and S.D. (C) of 6–12 imaging experiments for each compound. Significant increases compared to the respective basal values are indicated (#: p < 0.05; Student´s t-test for paired data).

hTRPC7-YFP = tested on: T2, hTRPC7-YFP; experiment: Fluo-4 Ca2+ influx assay in HEK293 cells stably expressing TRPC7; assay type: cell-based, human; conditions: fluo-4 concentration response analysis
T2 construct: expressed in transfected cells

[3] = tested on: T3, heteromeric TRPC3:TRPC6 channel complexes; experiment: Fluo-4 Ca2+ influx assay in HEK293 cells co-expressing TRPC3 and TRPC6; assay type: cell-based; conditions: fluo-4 concentration response analysis
T3 construct: expressed in transfected cells; host or cells: HEK293, stably co-transfected
Description: All fluorometric Ca^2+ assays were done in (4-(2-hydroxyethyl)-1-piperazineethanesulfonic acid) (HEPES)-buffered saline (HBS), containing 132 mM NaCl, 6 mM KCl, 1 mM MgCl2, 1 mM CaCl2, 5.5 mM D-glucose, 10 mM HEPES, and 0.035% bovine serum albumin (BSA) adjusted to pH 7.4 with NaOH. For measurements in Ca^2+-free bath solutions, a modified HBS without CaCl2 was supplemented with 200 µM ethylene glycol-bis(β-aminoethyl ether)-N,N,N′,N′-tetraacetic acid (EGTA).
The primary compound screen and the generation of concentration response curves in HEK293 cells or in PC12 cells were performed by using a custom-made fluorescence plate imager built into a robotic liquid handling station equipped with a 96-tip multichannel head (Freedom Evo 150, Tecan, Männedorf, Switzerland) as described previously. To this end, trypsinized cell suspensions were loaded with 4 µM fluo-4/AM (Invitrogen, Thermo Fisher Scientific, Waltham, MA, U.S.A.) in cell culture medium for 30 min at 37 °C. After brief centrifugation, cells were resuspended in HBS and dispensed into black pigmented, clear-bottom 384-well plates (Greiner µClear, Frickenhausen, Germany). Plates were mounted on the imager, and fluorescence signals were recorded with a cooled Zyla 5.5 camera (Andor, Belfast, UK) through a 515 nm long pass filter. The image acquisition was controlled by the µManager software (http://micro-manager.org), and excitation with a LED array (470 nm) was synchronized by the camera trigger output. After baseline recording for about 60 s, the compound libraries or serial dilutions of activators or inhibitors were added to the cells by the liquid handling device. When inhibitory potencies were evaluated, a second pipetting step with the respective reference agonist was performed. Fluorescence intensities were calculated from image stacks for each well with ImageJ (National Institutes of Health, Bethesda, MD, U.S.A.), corrected for background signals, and normalized to the initial intensities (F/F0). […]

COc1ccc(Nc2nc(C(=O)N3CCc4ccccc4C3)cs2)cc1 [GSK417654A] was tested, and the IC50 (TRPC3) was 500 nM and the “effect on ionic currents stimulated by 50 µM artemisinin in PC12 cells” value [1] was “rapidly reversed”.
O=C(c1cc2c(s1)CCCCC2)N1CCC(n2c(=O)[nH]c3ccccc32)CC1 [GSK-1702934A] was tested, and the “[Ca2+]i in fura 2-loaded PC12 cells” value [2] was “significant increases in [Ca^2+]i”.
With O=c1c2ccccc2[nH]c(=S)n1CCN1CCC(=C(c2ccc(F)cc2)c2ccc(F)cc2)CC1 [R59949] the “effect of preincubation on responses to artemisinin (1–200 µM)” value (TRPC3) was “did not increase the responses”.
With O=C(NCCCCCCNC(=O)ON=C1CCCCC1)ON=C1CCCCC1 [RHC 80267] the “effect of preincubation on responses to artemisinin (1–200 µM)” value (TRPC3) was “did not increase the responses”.
In the case of N#Cc1ccc(O[C@@H]2c3ccccc3C[C@H]2N2CCC[C@@H](N)C2)c(Cl)c1 [SAR7334], the IC50 (TRPC3) is reported as 1400 nM and the “effect on ionic currents stimulated by 50 µM artemisinin in PC12 cells” value [1] is reported as “rapidly reversed”.
CCO[C@H]1O[C@@H]2O[C@@]3(C)CC[C@H]4[C@H](C)CC[C@@H]([C@H]1C)[C@@]24OO3 [arteether] was tested, and the “TRPC3 activation in concentration response analysis” value (TRPC3) was “did not exert signals that were significantly stronger than responses to the solvent” and the “effect on TRPC7” value (hTRPC7-YFP) was “inhibited”.
With CO[C@H]1O[C@@H]2O[C@@]3(C)CC[C@H]4[C@H](C)CC[C@@H]([C@H]1C)[C@@]24OO3 [artemether] the EC50 (TRPC3; fluo-4, HEK TRPC3-YFP cell suspensions, read-out: potency to activate Ca2+ entry through TRPC3) was 14800 nM, the “effect on TRPC7” value (hTRPC7-YFP) was “inhibited” and the “response of cells stably transfected with both TRPC3 and TRPC6” value [3] was “in a very similar fashion as HEKTRPC3-YFP cells”.
In the case of C[C@H]1[C@H](OC(=O)CCC(=O)O)O[C@@H]2O[C@@]3(C)CC[C@H]4[C@H](C)CC[C@@H]1[C@@]24OO3 [artesunate], the “TRPC3 activation in concentration response analysis” value (TRPC3) is reported as “did not exert signals that were significantly stronger than responses to the solvent”.
